Results reported in patent US20240383870A1, “HETEROCYCLIC ALDEHYDE TRAPPING COMPOUNDS AND USES THEREOF” (Aldeyra Therapeutics, Inc., priority 2021, published 2024).

Assays:
Format in all cases: in vivo
M-CSF (CSF1) = test: Acute LPS-induced sepsis in C57BL/6 mice: M-CSF (CSF1) cytokine detection assay; conditions: LPS-challenged mice, plasma at 6.5 h, unpaired t-test vs vehicle
From the text: FIG. 24 is a graph showing the results of an M-CSF (CSF1) cytokine detection assay in samples collected from mouse subjects after administration of compounds of the present disclosure. M-CSF causes hematopoietic stem cells to differentiate into macrophages.
(§1) The primary objective of this study was to collect plasma samples of lipopolysaccharide (LPS) challenged C57BL/6 mice after dose of test compounds to provide a cytokine profile as impacted by prophylactic treatments. This study models acute sepsis, which is a systemic inflammatory syndrome initiated by Gram-negative and Gram-positive bacteria and fungi which infect the lungs, abdomen, bloodstream, and renal or genitourinary tracts. Sepsis patients ultimately die of multiorgan failure which is caused by extensive tissue hypo-oxygenation due to ongoing microvascular leakage, disseminated intravascular coagulation, compromised energy production, and metabolic alterations. Sepsis is characterized by an early systemic inflammatory response phase featuring symptoms, such as tachycardia, fever, hyperventilation, and activation of the complement and coagulation cascades. However, it is now appreciated that a compensatory anti-inflammatory response phase follows, characterized by neuroendocrine-mediated immunosuppression. Since these processes are the result of interaction between cells of inflammation and organs, investigation of the treatment of this syndrome requires the use of intact animal models. The use of ten mice per group allows useful statistical modelling of the results.
(§2) For the data shown in Table 2A, 103 mice (female, 18-22 gram, C57BL/6) were purchased from ENVIGO. The mice were housed in 20 cages of 5 mice per cage with 1 cage of 3 mice as extra. The cages had filter tops and autoclaved bedding, and the animals were placed in quarantine with daily inspection. The treatment groups are detailed in Table 2A below. 10 mice were included in each group. The mice were dosed by oral gavage (PO) at 10 ml/kg as per the table below. MC=methyl cellulose.
as §2, with “2B, 185” for “2A, 103”, “37” for “20”, “cage.” for “cage with 1 cage of 3 mice as extra.”, “2B” for “2A”, “(P0)” for “(PO)”
(§3) At T=0 h, the mice were dosed with one of the test compounds as described in the above table.
(§4) At T=0.5 h, the mice were injected IP with 1.5 mg/kg […] (Sigma).
(§5) At T=6.5 h, all mice were anesthetized and exsanguinated into pre-chilled EDTA-treated tubes. The blood was processed to plasma which was stored in labeled 0.5 polypropylene snap-cap tubes (0.5 mL Eppendorf Safe-Lock Tubes (Fisher Scientific) at −80° C.
(§6) Preparation of vehicle: 1.0 gram of methyl cellulose (Sigma) was dissolved in 200 mL of water (USP purified) to make a solution of 0.5% methyl cellulose in water. Preparation of LPS solution: 6 mg of LPS (from Escherichia Coli 055:B5, Cat #L2880, Sigma Lot #057m4013) was dissolved in 20 ml of saline to give a LPS solution of 0.3 mg/ml. All mice were injected with 5 ml/kg (1.5 mg/kg) at the scheduled time by intraperitoneal injection.
(§7) A 32-plex cytokine panel was obtained from Eve Technologies. Each cytokine was assessed based against a 7 point curve range in duplicate. The average of the two replicate analyses was used for statistics. Unpaired t-tests were performed using Excel™ contrasting vehicle against each treatment group. One star indicates P<0.05. Two stars indicates P<0.01. Three stars indicates P<0.001. Four stars indicates P<0.0001. Most, but not all, statistically significant results are indicated with star(s).

IL-9 = test: Acute LPS-induced sepsis in C57BL/6 mice: IL-9 cytokine detection assay; conditions: 125 mpk PO; LPS-challenged mice, plasma at 6.5 h; unpaired t-test vs vehicle
From the text: FIG. 13 is a graph showing the results of an IL-9 cytokine detection assay in samples collected from mouse subjects after administration of compounds of the present disclosure.
as §1
as §2, with “cellulose. […]” for “cellulose.”
(§8) A 32-plex cytokine panel was obtained from Eve Technologies. Each cytokine was assessed based against a 7 point curve range in duplicate. […]

KC = test: Acute LPS-induced sepsis in C57BL/6 mice: KC cytokine detection assay; conditions: LPS-challenged mice, plasma at 6.5 h, unpaired t-test vs vehicle
From the text: FIG. 20 is a graph showing the results of a KC cytokine detection assay in samples collected from mouse subjects after administration of compounds of the present disclosure.
as §1, §2
as §2, with “2B, 185” for “2A, 103”, “37” for “20”, “cage.” for “cage with 1 cage of 3 mice as extra.”, “2B” for “2A”, “(P0)” for “(PO)”
as §3, §4, §5, §6, §7

IL-10 = test: Acute LPS-induced sepsis in C57BL/6 mice: IL-10 cytokine detection assay; conditions: LPS-challenged mice, plasma at 6.5 h, unpaired t-test vs vehicle
IL-12(p70) = test: Acute LPS-induced sepsis in C57BL/6 mice: IL-12(p70) cytokine detection assay; conditions: LPS-challenged mice, plasma at 6.5 h, unpaired t-test vs vehicle
From the text: FIG. 16 is a graph showing the results of an IL-12(p70) cytokine detection assay in samples collected from mouse subjects after administration of compounds of the present disclosure.
as §1
as §2, with “The mice were dosed by oral gavage (PO) at 10 ml/kg as per the table below.” left out
as §2, with “2B, 185” for “2A, 103”, “37” for “20”, “cage.” for “cage with 1 cage of 3 mice as extra.”, “2B” for “2A”, “(P0)” for “(PO)”
as §3, §4, §5, §6
A 32-plex cytokine panel was obtained from Eve Technologies. Each cytokine was assessed based against a 7 point curve range in duplicate. The average of the two replicate analyses was used for statistics. Unpaired t-tests were performed using Excel™ contrasting vehicle against each treatment group. One star indicates P<0.05. […]

IL-13 = test: Acute LPS-induced sepsis in C57BL/6 mice: IL-13 cytokine detection assay; conditions: LPS-challenged mice, plasma at 6.5 h, unpaired t-test vs vehicle
From the text: FIG. 17 is a graph showing the results of an IL-13 cytokine detection assay in samples collected from mouse subjects after administration of compounds of the present disclosure.
as §1, §2
as §2, with “2B, 185” for “2A, 103”, “37” for “20”, “cage.” for “cage with 1 cage of 3 mice as extra.”, “2B” for “2A”, “(P0)” for “(PO)”
as §3, §4, §5, §6
A 32-plex cytokine panel was obtained from Eve Technologies. Each cytokine was assessed based against a 7 point curve range in duplicate. The average of the two replicate analyses was used for statistics. […]

MCP-1(CCL2) = test: Acute LPS-induced sepsis in C57BL/6 mice: MCP-1(CCL2) cytokine detection assay; conditions: 200 mpk PO; LPS-challenged mice, plasma at 6.5 h; unpaired t-test vs vehicle
IFNγ = test: Acute LPS-induced sepsis in C57BL/6 mice: IFNγ cytokine detection assay; conditions: 75 mpk PO; LPS-challenged mice, plasma at 6.5 h; unpaired t-test vs vehicle
IL-17 = test: Acute LPS-induced sepsis in C57BL/6 mice: IL-17 cytokine detection assay; conditions: 75 mpk PO; LPS-challenged mice, plasma at 6.5 h; unpaired t-test vs vehicle
From the text: FIG. 19 is a graph showing the results of an IL-17 cytokine detection assay in samples collected from mouse subjects after administration of compounds of the present disclosure.
as §1
as §2, with “The mice were dosed by oral gavage (PO) at 10 ml/kg as per the table below.” left out
as §2, with “2B, 185” for “2A, 103”, “37” for “20”, “cage.” for “cage with 1 cage of 3 mice as extra.”, “2B” for “2A”, “(P0)” for “(PO)”
as §3, §4
(§9) At T=6.5 h, all mice were anesthetized and exsanguinated into pre-chilled EDTA-treated tubes. […]
as §8

[1] = test system: leukemia inhibitory factor (LIF); test: Acute LPS-induced sepsis in C57BL/6 mice: leukemia inhibitory factor (LIF) cytokine detection assay; conditions: 75 mpk PO; LPS-challenged mice, plasma at 6.5 h; unpaired t-test vs vehicle
From the text: FIG. 21 is a graph showing the results of a leukemia inhibitory factor (LIF) cytokine detection assay in samples collected from mouse subjects after administration of compounds of the present disclosure. LIF is an interleukin 6 class cytokine that affects cell growth by inhibiting differentiation.
as §1, §2
as §2, with “2B, 185” for “2A, 103”, “37” for “20”, “cage.” for “cage with 1 cage of 3 mice as extra.”, “2B” for “2A”, “(P0)” for “(PO)”
as §3, §4, §5, §6, §8

IL-3 = test: Acute LPS-induced sepsis in C57BL/6 mice: IL-3 cytokine detection assay; conditions: 75 mpk PO; LPS-challenged mice, plasma at 6.5 h; unpaired t-test vs vehicle
MIP2(CXCL2) = test: Acute LPS-induced sepsis in C57BL/6 mice: MIP2(CXCL2) cytokine detection assay; conditions: 75 mpk PO; LPS-challenged mice, plasma at 6.5 h; unpaired t-test vs vehicle
From the text: FIG. 27 is a graph showing the results of a MIP2(CXCL2) cytokine detection assay in samples collected from mouse subjects after administration of compounds of the present disclosure.
as §1
as §2, with “The mice were dosed by oral gavage (PO) at 10 ml/kg as per the table below.” left out
as §2, with “2B, 185” for “2A, 103”, “37” for “20”, “cage.” for “cage with 1 cage of 3 mice as extra.”, “2B” for “2A”, “(P0)” for “(PO)”
as §3, §4, §9, §8

Question: `CC(C)(O)c1ncc(C(F)(F)F)cc1N` [Compound I-24, 2-(3-Amino-5-(trifluoromethyl)pyridin-2-yl) propan-2-ol] was tested. Which “M-CSF: significant cytokine change vs. vehicle” value (M-CSF (CSF1); 200 mpk PO) did it give?
Answer: * (One star indicates P<0.05)

Question: Which “IL-9: significant cytokine change vs. vehicle” value (IL-9) does the source give for `CC(C)(O)c1cc2c(cc1N)OCCO2` [Compound I-26, 2-(7-Amino-2,3-dihydrobenzo[b] [1,4]dioxin-6-yl) propan-2-ol] here?
Answer: * (One star indicates P<0.05)

Question: How did the “KC: significant cytokine change vs. vehicle” value (KC; 200 mpk PO) turn out when `CC(C)(O)c1cc(F)c(F)cc1N` [Compound I-27, 2-(2-Amino-4,5-difluorophenyl) propan-2-ol] was run?
Answer: * (One star indicates P<0.05)

Question: For `CC(C)(O)c1cc(Cl)c(Cl)cc1N` [Compound I-28, 2-(2-Amino-4,5-dichlorophenyl) propan-2-ol], which “IL-10: significant cytokine change vs. vehicle” value (IL-10; 200 mpk PO) is on record?
Answer: * (One star indicates P<0.05)

Question: What about the “IL-12 (p70): significant cytokine change vs. vehicle” value (IL-12(p70); 200 mpk PO) of the same compound?
Answer: * (One star indicates P<0.05)

Question: What about the “IL-13: significant cytokine change vs. vehicle” value (IL-13; 200 mpk PO) of the same compound?
Answer: * (One star indicates P<0.05)

Question: What about the “KC: significant cytokine change vs. vehicle” value (KC; 200 mpk PO) of the same compound?
Answer: *** (Three stars indicates P<0.001)

Question: What about the “MCP-1: significant cytokine change vs. vehicle” value (MCP-1(CCL2)) of the same compound?
Answer: * (One star indicates P<0.05)

Question: Which results are given for `Cc1cnc(C(C)(C)O)c(N)c1` [Compound I-32, 2-(3-Amino-5-methylpyridin-2-yl) propan-2-ol]?
Answer: IFNy: significant cytokine change vs. vehicle (IFNγ): **** (Four stars indicates P<0.0001); IL-10: significant cytokine change vs. vehicle (IL-10; 75 mpk PO): * (One star indicates P<0.05); IL-12 (p70): significant cytokine change vs. vehicle (IL-12(p70); 75 mpk PO): * (One star indicates P<0.05); IL-13: significant cytokine change vs. vehicle (IL-13; 75 mpk PO): *** (Three stars indicates P<0.001); IL-17: significant cytokine change vs. vehicle (IL-17): * (One star indicates P<0.05); LIF: significant cytokine change vs. vehicle [1]: **** (Four stars indicates P<0.0001); M-CSF: significant cytokine change vs. vehicle (M-CSF (CSF1); 75 mpk PO): **** (Four stars indicates P<0.0001)

Question: Which “IL-3: significant cytokine change vs. vehicle” value (IL-3) does the source give for `CC(O)(c1ccc(C(F)(F)F)cc1N)C(F)(F)F` (stereo not drawn) [Compound I-33, 2-(2-Amino-4-(trifluoromethyl)phenyl)-1,1,1-trifluoropropan-2-ol] here?
Answer: ** (Two stars indicates P<0.01)

Question: And the “IL-12 (p70): significant cytokine change vs. vehicle” value (IL-12(p70); 75 mpk PO)?
Answer: * (One star indicates P<0.05)

Question: And the “IL-13: significant cytokine change vs. vehicle” value (IL-13; 75 mpk PO)?
Answer: ** (Two stars indicates P<0.01)

Question: And the “KC: significant cytokine change vs. vehicle” value (KC; 75 mpk PO)?
Answer: ** (Two stars indicates P<0.01)

Question: What about the “LIF: significant cytokine change vs. vehicle” value [1] of the same compound?
Answer: **** (Four stars indicates P<0.0001)

Question: What about the “MIP-2: significant cytokine change vs. vehicle” value (MIP2(CXCL2)) of the same compound?
Answer: ** (Two stars indicates P<0.01)
